According to the kinase profiling compilation of Christmann-Franck et al. (2016):

How the values were obtained:
Assay in all cases: KINOMEscan competition binding
Conditions in all cases: compound 10.0 µM
[1] = molecular target: CDKL1 (human) (UniProt Q00532)
[2] = molecular target: EPHA6 (human) (UniProt Q9UF33)
[3] = molecular target: DCLK3 (human) (UniProt Q9C098)
[4] = molecular target: MAP3K10 (human) (UniProt Q02779)
[5] = molecular target: NEK1 (human) (UniProt Q96PY6)
[6] = molecular target: MAPKAPK2 (human) (UniProt P49137)
[7] = molecular target: TTK (human) (UniProt P33981)
[8] = molecular target: PIK3CD (human) (UniProt O00329)
[9] = molecular target: CSNK1A1L (human) (UniProt Q8N752)
[10] = molecular target: MAP2K4 (human) (UniProt P45985)
[11] = molecular target: CDK16 (human) (UniProt Q00536)
[12] = molecular target: MUSK (human) (UniProt O15146)
[13] = molecular target: DAPK1 (human) (UniProt P53355)
[14] = molecular target: PIM2 (human) (UniProt Q9P1W9)
[15] = molecular target: FLT4 (human) (UniProt P35916)
[16] = molecular target: HCK (human) (UniProt P08631)
[17] = molecular target: MAPK14 (human) (UniProt Q16539)
[18] = molecular target: MAK (human) (UniProt P20794)
[19] = molecular target: NTRK2 (human) (UniProt Q16620)
[20] = molecular target: NTRK3 (human) (UniProt Q16288)
[21] = molecular target: CLK3 (human) (UniProt P49761)
[22] = molecular target: EPHA4 (human) (UniProt P54764)
[23] = molecular target: PRKACA (human) (UniProt P17612)
[24] = molecular target: TIE1 (human) (UniProt P35590)
[25] = molecular target: MAPKAPK5 (human) (UniProt Q8IW41)
[26] = molecular target: LIMK1 (human) (UniProt P53667)
[27] = molecular target: DCLK2 (human) (UniProt Q8N568)
[28] = molecular target: CDKL5 (human) (UniProt O76039)
[29] = molecular target: CSNK2A1 (human) (UniProt P68400)
[30] = molecular target: SIK2 (human) (UniProt Q9H0K1)
[31] = molecular target: GSK3A (human) (UniProt P49840)
[32] = molecular target: PIK3C2G (human) (UniProt O75747)
[33] = molecular target: STK36 (human) (UniProt Q9NRP7)
[34] = molecular target: BMPR2 (human) (UniProt Q13873)
[35] = molecular target: CAMK2A (human) (UniProt Q9UQM7)
[36] = molecular target: ADCK4 (human) (UniProt Q96D53)
[37] = molecular target: STK35 (human) (UniProt Q8TDR2)
[38] = molecular target: NEK2 (human) (UniProt P51955)
[39] = molecular target: MAPK12 (human) (UniProt P53778)
[40] = molecular target: EGFR (human) (UniProt P00533)

Sequence of MAPKAPK5 (human) (Q8IW41 whole entry, looked up): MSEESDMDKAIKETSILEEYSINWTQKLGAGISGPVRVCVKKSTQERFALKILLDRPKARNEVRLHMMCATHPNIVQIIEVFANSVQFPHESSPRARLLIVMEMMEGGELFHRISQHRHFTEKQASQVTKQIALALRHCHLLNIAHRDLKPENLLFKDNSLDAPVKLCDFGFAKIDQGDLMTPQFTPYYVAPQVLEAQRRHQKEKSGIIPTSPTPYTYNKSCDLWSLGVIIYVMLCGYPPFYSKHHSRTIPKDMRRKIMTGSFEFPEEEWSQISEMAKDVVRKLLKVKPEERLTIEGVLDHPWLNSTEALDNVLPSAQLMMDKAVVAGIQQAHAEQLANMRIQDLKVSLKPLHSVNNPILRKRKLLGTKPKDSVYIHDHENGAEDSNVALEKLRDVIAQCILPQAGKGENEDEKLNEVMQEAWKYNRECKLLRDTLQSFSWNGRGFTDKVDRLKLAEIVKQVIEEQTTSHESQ
Sequence of NEK1 (human) (Q96PY6 whole entry, looked up): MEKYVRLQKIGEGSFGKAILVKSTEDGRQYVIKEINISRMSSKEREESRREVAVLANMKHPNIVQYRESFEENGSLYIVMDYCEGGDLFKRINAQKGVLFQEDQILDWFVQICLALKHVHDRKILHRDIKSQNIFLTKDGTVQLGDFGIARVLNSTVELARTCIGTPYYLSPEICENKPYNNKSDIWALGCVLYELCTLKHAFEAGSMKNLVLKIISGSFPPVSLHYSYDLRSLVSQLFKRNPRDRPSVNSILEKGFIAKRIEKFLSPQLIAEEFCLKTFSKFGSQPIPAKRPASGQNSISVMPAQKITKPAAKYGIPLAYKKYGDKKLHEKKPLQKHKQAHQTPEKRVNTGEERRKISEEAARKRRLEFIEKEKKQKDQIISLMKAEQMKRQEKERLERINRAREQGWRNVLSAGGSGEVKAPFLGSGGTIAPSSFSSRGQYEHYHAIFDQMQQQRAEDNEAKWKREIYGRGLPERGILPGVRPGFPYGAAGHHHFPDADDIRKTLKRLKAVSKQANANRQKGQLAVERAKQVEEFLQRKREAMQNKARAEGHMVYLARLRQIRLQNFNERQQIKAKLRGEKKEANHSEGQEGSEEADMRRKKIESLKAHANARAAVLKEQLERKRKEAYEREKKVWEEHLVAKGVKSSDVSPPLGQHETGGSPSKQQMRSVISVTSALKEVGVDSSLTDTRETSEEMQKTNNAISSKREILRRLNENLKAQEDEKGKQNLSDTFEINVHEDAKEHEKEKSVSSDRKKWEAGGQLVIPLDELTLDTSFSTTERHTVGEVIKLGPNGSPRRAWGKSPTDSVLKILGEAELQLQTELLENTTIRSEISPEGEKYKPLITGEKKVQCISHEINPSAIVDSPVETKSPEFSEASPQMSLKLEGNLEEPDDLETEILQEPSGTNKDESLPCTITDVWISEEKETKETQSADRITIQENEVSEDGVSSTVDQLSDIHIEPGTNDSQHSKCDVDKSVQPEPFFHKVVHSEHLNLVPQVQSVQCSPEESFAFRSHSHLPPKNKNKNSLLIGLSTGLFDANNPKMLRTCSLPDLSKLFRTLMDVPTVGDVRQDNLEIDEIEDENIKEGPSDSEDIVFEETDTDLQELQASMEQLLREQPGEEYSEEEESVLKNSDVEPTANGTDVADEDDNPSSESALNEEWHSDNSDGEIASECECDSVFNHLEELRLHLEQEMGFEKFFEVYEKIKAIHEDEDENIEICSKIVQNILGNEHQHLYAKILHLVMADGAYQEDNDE
Sequence of PIK3CD (human) (O00329 whole entry, looked up): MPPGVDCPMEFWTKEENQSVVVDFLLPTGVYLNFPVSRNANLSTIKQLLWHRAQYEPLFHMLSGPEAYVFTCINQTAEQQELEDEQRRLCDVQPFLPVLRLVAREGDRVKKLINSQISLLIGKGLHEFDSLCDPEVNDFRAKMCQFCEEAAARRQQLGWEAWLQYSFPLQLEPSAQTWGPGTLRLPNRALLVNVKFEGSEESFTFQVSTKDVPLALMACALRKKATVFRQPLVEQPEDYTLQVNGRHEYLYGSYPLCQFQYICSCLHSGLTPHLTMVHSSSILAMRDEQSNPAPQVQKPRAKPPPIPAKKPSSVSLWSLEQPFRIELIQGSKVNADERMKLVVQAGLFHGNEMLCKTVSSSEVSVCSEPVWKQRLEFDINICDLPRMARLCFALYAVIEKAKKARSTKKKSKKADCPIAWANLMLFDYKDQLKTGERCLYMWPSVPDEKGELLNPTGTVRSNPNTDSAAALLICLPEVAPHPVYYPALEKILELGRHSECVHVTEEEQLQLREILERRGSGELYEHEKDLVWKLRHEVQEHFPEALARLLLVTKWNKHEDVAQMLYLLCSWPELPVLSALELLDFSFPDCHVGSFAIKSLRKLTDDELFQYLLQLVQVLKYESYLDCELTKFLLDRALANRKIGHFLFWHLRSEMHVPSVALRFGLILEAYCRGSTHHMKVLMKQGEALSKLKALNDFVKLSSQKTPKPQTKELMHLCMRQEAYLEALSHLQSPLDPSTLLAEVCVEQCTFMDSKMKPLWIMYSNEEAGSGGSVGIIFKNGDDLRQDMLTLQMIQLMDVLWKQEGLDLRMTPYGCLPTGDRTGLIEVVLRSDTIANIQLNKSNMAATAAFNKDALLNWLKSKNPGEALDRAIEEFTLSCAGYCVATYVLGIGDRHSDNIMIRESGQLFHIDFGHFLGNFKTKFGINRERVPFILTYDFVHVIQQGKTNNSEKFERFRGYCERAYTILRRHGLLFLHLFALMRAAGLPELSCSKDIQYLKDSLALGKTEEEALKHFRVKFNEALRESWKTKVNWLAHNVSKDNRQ
Sequence of NEK2 (human) (P51955 whole entry, looked up): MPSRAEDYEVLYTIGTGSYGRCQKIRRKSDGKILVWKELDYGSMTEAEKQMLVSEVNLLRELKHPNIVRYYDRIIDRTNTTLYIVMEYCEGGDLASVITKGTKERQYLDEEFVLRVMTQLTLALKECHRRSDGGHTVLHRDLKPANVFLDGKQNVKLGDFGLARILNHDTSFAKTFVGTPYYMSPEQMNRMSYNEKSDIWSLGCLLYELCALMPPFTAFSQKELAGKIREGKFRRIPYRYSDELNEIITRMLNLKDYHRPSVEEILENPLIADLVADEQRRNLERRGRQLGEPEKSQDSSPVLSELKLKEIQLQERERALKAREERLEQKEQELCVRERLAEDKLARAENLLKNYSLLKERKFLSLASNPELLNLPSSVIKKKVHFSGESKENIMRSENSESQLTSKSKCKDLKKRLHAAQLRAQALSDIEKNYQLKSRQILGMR
Sequence of TIE1 (human) (P35590 whole entry, looked up): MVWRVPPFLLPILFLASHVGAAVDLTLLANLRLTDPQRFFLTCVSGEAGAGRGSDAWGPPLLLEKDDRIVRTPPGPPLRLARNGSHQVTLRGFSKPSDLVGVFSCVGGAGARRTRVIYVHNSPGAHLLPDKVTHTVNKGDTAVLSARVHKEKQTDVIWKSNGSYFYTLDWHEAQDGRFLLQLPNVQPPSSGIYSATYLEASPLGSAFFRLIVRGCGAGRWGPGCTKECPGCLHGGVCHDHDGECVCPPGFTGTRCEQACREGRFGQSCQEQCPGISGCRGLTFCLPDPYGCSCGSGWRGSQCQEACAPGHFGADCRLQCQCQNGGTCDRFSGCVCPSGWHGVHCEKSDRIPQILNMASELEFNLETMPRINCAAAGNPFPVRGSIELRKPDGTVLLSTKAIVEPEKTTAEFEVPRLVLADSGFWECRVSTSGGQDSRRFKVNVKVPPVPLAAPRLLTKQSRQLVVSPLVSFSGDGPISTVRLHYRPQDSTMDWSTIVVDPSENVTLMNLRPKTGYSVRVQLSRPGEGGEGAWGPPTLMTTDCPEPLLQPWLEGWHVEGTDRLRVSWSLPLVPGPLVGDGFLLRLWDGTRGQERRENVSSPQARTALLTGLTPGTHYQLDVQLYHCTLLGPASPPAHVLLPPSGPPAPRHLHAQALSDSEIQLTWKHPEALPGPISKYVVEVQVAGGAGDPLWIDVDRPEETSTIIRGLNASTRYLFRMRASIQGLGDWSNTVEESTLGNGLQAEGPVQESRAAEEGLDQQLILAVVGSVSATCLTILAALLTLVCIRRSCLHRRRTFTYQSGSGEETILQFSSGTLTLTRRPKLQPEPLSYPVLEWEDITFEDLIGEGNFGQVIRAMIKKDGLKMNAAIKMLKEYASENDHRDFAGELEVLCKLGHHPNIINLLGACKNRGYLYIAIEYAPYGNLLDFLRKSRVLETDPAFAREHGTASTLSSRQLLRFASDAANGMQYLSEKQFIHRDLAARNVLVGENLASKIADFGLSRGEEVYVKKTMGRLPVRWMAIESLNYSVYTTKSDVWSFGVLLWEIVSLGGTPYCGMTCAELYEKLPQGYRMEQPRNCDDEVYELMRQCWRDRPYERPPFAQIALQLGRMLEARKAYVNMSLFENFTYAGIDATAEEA
Sequence of MAPKAPK2 (human) (P49137 whole entry, looked up): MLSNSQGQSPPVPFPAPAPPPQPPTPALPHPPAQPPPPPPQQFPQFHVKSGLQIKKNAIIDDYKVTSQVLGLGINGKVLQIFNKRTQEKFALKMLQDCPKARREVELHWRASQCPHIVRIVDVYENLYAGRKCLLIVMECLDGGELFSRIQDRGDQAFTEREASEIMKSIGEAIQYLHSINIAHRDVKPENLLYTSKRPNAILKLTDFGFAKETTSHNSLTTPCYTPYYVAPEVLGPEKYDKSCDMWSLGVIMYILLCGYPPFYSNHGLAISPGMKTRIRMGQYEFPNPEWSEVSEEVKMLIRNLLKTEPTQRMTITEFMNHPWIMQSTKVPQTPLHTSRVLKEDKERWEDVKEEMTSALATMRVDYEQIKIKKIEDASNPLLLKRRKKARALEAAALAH
Sequence of PIM2 (human) (Q9P1W9 whole entry, looked up): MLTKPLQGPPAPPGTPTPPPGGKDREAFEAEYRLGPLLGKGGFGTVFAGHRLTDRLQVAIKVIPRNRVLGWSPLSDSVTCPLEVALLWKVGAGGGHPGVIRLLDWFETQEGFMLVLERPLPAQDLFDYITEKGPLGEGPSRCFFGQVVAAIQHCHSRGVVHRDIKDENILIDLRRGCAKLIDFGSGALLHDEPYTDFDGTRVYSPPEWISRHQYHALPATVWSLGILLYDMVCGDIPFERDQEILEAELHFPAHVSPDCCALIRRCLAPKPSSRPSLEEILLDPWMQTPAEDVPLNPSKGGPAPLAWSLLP

SMILES	kinase still bound, per cent of control [1] [%]	kinase still bound, per cent of control [2] [%]	kinase still bound, per cent of control [3] [%]	kinase still bound, per cent of control [4] [%]	kinase still bound, per cent of control [5] [%]	kinase still bound, per cent of control [6] [%]	kinase still bound, per cent of control [7] [%]	kinase still bound, per cent of control [8] [%]	kinase still bound, per cent of control [9] [%]	kinase still bound, per cent of control [10] [%]	kinase still bound, per cent of control [11] [%]	kinase still bound, per cent of control [12] [%]	kinase still bound, per cent of control [13] [%]	kinase still bound, per cent of control [14] [%]	kinase still bound, per cent of control [15] [%]	kinase still bound, per cent of control [17] [%]	kinase still bound, per cent of control [18] [%]	kinase still bound, per cent of control [19] [%]	kinase still bound, per cent of control [20] [%]	kinase still bound, per cent of control [21] [%]	also measured
COc1cc2ncn(-c3cc(OCc4ccccc4C(F)(F)F)c(C(N)=O)s3)c2cc1OC	72	59	100	98	65	100	87	78	78	100	100	100	8.6	100	1.4	100	100	59	93	83	kinase still bound, per cent of control [16]: 72%; kinase still bound, per cent of control [22]: 83%; kinase still bound, per cent of control [23]: 100%; kinase still bound, per cent of control [24]: 31%; kinase still bound, per cent of control [25]: 91%; kinase still bound, per cent of control [26]: 79%; kinase still bound, per cent of control [27]: 99%; kinase still bound, per cent of control [28]: 73%; kinase still bound, per cent of control [29]: 30%; kinase still bound, per cent of control [30]: 26%; kinase still bound, per cent of control [31]: 100%; kinase still bound, per cent of control [32]: 100%; kinase still bound, per cent of control [33]: 76%; kinase still bound, per cent of control [34]: 69%; kinase still bound, per cent of control [35]: 76%; kinase still bound, per cent of control [36]: 71%; kinase still bound, per cent of control [37]: 56%; kinase still bound, per cent of control [38]: 14%
O=c1cc(N2CCOCC2)oc2c(-c3cccc4c3sc3ccccc34)cccc12	87	89	100	100	58	100	100	3.3	92	100	97	100	72	84	92	98	43	100	74	100	kinase still bound, per cent of control [16]: 100%; kinase still bound, per cent of control [22]: 82%; kinase still bound, per cent of control [23]: 87%; kinase still bound, per cent of control [24]: 100%; kinase still bound, per cent of control [25]: 100%; kinase still bound, per cent of control [26]: 100%; kinase still bound, per cent of control [27]: 100%; kinase still bound, per cent of control [39]: 99%; kinase still bound, per cent of control [28]: 100%; kinase still bound, per cent of control [29]: 74%; kinase still bound, per cent of control [40]: 94%; kinase still bound, per cent of control [30]: 75%; kinase still bound, per cent of control [31]: 78%; kinase still bound, per cent of control [32]: 16%; kinase still bound, per cent of control [33]: 100%; kinase still bound, per cent of control [34]: 83%; kinase still bound, per cent of control [35]: 78%; kinase still bound, per cent of control [36]: 73%; kinase still bound, per cent of control [37]: 80%; kinase still bound, per cent of control [38]: 96%
COCC(=O)NC/C=C/c1ccc2ncnc(Nc3ccc(Oc4ccc(C)nc4)c(C)c3)c2c1	69	96	83	100	83	100	80	100	82	95	74	100	76	100	98	100	90	100	93	100	kinase still bound, per cent of control [22]: 98%; kinase still bound, per cent of control [23]: 100%; kinase still bound, per cent of control [24]: 100%; kinase still bound, per cent of control [25]: 100%; kinase still bound, per cent of control [26]: 93%; kinase still bound, per cent of control [27]: 100%; kinase still bound, per cent of control [39]: 100%; kinase still bound, per cent of control [28]: 100%; kinase still bound, per cent of control [29]: 87%; kinase still bound, per cent of control [30]: 84%; kinase still bound, per cent of control [31]: 100%; kinase still bound, per cent of control [32]: 24%; kinase still bound, per cent of control [33]: 100%; kinase still bound, per cent of control [34]: 73%; kinase still bound, per cent of control [35]: 93%; kinase still bound, per cent of control [36]: 98%; kinase still bound, per cent of control [37]: 65%; kinase still bound, per cent of control [38]: 100%
